{
  "source": "patent US8058242B2",
  "about": "“Chimeric proteins with natriuretic activity” (The University of Queensland, priority 2004, dated 2011)",
  "test_system": "normal rats",
  "experiment": "Hemodynamic parameters in normal anesthetized rats (Example 10)",
  "note": "Positions of bridges follow the written chain, without caps; N, C: chain ends. Residues, ends and D or L forms follow the SMILES beside them.",
  "data": [
    {"smiles": "CC[C@H](C)[C@H](NC(=O)[C@H](CCCCN)NC(=O)[C@H](CO)NC(=O)[C@H](CC(=O)O)NC(=O)[C@@H](N)CO)C(=O)NCC(=O)N[C@@H](CC(N)=O)C(=O)NCC(=O)N[C@H]1CSSC[C@@H](C(=O)N[C@@H](CC(N)=O)C(=O)N[C@@H](CCCNC(=N)N)C(=O)N[C@H](C(=O)N[C@@H](CCSC)C(=O)N[C@@H](CCC(N)=O)C(=O)N[C@@H](CC(N)=O)C(=O)N2CCC[C@H]2C(=O)N2CCC[C@H]2C(=O)N[C@@H](CCCCN)C(=O)N[C@@H](CCCCN)C(=O)N[C@@H](Cc2ccccc2)C(=O)N[C@@H](CO)C(=O)NCC(=O)N[C@@H](CCC(=O)O)C(=O)O)[C@@H](C)CC)NC(=O)CNC(=O)[C@H](CC(C)C)NC(=O)CNC(=O)[C@H](CO)NC(=O)[C@H](C(C)C)NC(=O)[C@H](CO)NC(=O)CNC(=O)[C@H]([C@@H](C)CC)NC(=O)[C@H](CCCNC(=N)N)NC(=O)[C@H](CC(=O)O)NC(=O)[C@H](CC(C)C)NC(=O)[C@@H]2CCCN2C(=O)[C@H](Cc2ccccc2)NC(=O)CNC(=O)[C@H](Cc2ccccc2)NC1=O", "note": "[TNPc] (H-SDSKIGNGCFGFPLDRIGSVSGLGCNRIMQNPPKKFSGE-OH; disulfide 9-25)", "values": [
      {"measurement": "Blood Flow, mean change from control", "setting": "50 pmol/kg/min, 30 min", "value": -5.2, "unit": "mL/min"},
      {"measurement": "Conductance, mean change from control", "setting": "50 pmol/kg/min, 30 min", "value": "−1.1", "unit": "ml/min/mmHg"},
      {"measurement": "Diastolic LVP, mean change from control", "setting": "50 pmol/kg/min, 30 min", "value": "−1.4", "unit": "mmHg"},
      {"measurement": "HCT, mean change from control", "setting": "50 pmol/kg/min, 30 min", "value": "−1.7", "unit": "%"},
      {"measurement": "HR, mean change from control", "setting": "50 pmol/kg/min, 30 min", "value": "−13.5", "unit": "BPM"},
      {"measurement": "Mean BP, mean change from control", "setting": "50 pmol/kg/min, 30 min", "value": "−21.0", "unit": "mmHg"},
      {"measurement": "Urine Flow, mean change from control", "setting": "50 pmol/kg/min, 30 min", "value": 0.4, "unit": "mL/h"},
      {"measurement": "Blood Flow, mean change from control", "setting": "100 pmol/kg/min, 30 min", "value": -7.3, "unit": "mL/min"},
      {"measurement": "Conductance, mean change from control", "setting": "100 pmol/kg/min, 30 min", "value": "−2.1", "unit": "ml/min/mmHg"},
      {"measurement": "Diastolic LVP, mean change from control", "setting": "100 pmol/kg/min, 30 min", "value": "−0.9", "unit": "mmHg"},
      {"measurement": "HCT, mean change from control", "setting": "100 pmol/kg/min, 30 min", "value": "−3.5", "unit": "%"},
      {"measurement": "HR, mean change from control", "setting": "100 pmol/kg/min, 30 min", "value": "−23.6", "unit": "BPM"},
      {"measurement": "Mean BP, mean change from control", "setting": "100 pmol/kg/min, 30 min", "value": "−25.9", "unit": "mmHg"},
      {"measurement": "Urine Flow, mean change from control", "setting": "100 pmol/kg/min, 30 min", "value": 0.9, "unit": "mL/h"},
      {"measurement": "Blood Flow, mean change from control", "setting": "Recovery", "value": -3.0, "unit": "mL/min"},
      {"measurement": "Conductance, mean change from control", "setting": "Recovery", "value": "−1.3", "unit": "ml/min/mmHg"},
      {"measurement": "Diastolic LVP, mean change from control", "setting": "Recovery", "value": "−0.6", "unit": "mmHg"},
      {"measurement": "HCT, mean change from control", "setting": "Recovery", "value": 3.1, "unit": "%"},
      {"measurement": "HR, mean change from control", "setting": "Recovery", "value": "−17.9", "unit": "BPM"},
      {"measurement": "Mean BP, mean change from control", "setting": "Recovery", "value": "−4.1", "unit": "mmHg"},
      {"measurement": "Urine Flow, mean change from control", "setting": "Recovery", "value": 0.6, "unit": "mL/h"},
      {"measurement": "Blood Flow, Average drug response SED", "setting": "average of the two doses", "value": -6.2, "unit": "mL/min"},
      {"measurement": "Conductance, Average drug response SED", "setting": "average of the two doses", "value": "−1.6", "unit": "ml/min/mmHg"},
      {"measurement": "Diastolic LVP, Average drug response SED", "setting": "average of the two doses", "value": "−1.1", "unit": "mmHg"},
      {"measurement": "HCT, Average drug response SED", "setting": "average of the two doses", "value": "−2.6", "unit": "%"},
      {"measurement": "HR, Average drug response SED", "setting": "average of the two doses", "value": "−18.6", "unit": "BPM"},
      {"measurement": "Mean BP, Average drug response SED", "setting": "average of the two doses", "value": "−23.5", "unit": "mmHg"},
      {"measurement": "Urine Flow, Average drug response SED", "setting": "average of the two doses", "value": 0.7, "unit": "mL/h"}
    ]}
  ]
}
